Source: patent publication US8003812B2, “C10 cyclopentyl ester substituted taxanes” (priority 2004, dated 2011)
Read-outs that look alike come from different tables or passages of the source.

Experiments:
[1] = system: HCT 116 human colon carcinoma; assay: In vitro cytotoxicity, cell colony formation assay, HCT116; type: cell-based
Method: (§1) The cells were incubated in a CO2 incubator at 37° C. for 5 h for attachment to the bottom of Petri dishes. The compound of the present invention was made up fresh in medium at ten times the final concentration, and then 0.3 mL of this stock solution was added to the 2.7 mL of medium in the dish. The cells were then incubated with drugs for 72 h at 37° C. At the end of incubation the drug-containing media were decanted, the dishes were rinsed with 4 mL of Hank's Balance Salt Solution (HBSS), 5 mL of fresh medium was added, and the dishes were returned to the incubator for colony formation. The cell colonies were counted using a colony counter after incubation for 7 days. Cell survival was calculated and the values of IC50 (the drug concentration producing 50% inhibition of colony formation) were determined for each tested compound.

Sprague-Dawley rats [2] = assay: In vivo toxicity assessment in rats, intravenous; conditions: IV; for Rat tox score IV: summary score
Method: (§2) Toxicity was assessed in 250-300g Sprague-Dawley rats and three rats were used per dose group. Three dose groups of the test compound, (i.e., 3 mg/kg, 9 mg/kg and 12 mg/kg for intravenous administration; 15 mg/kg, 30 mg/kg and 40 mg/kg) and 1 control group constituted a study. Animals were observed and clinical chemistry data collected at days 4 and 10. Rats were euthanized on day 11 and the nerves were excised and fixed upon euthanization for further examination.
(§3) Each rat is scored as described below and a final toxicity score that incorporates all parameters is assigned. A dead rat is assigned a score of zero. Most of the parameters contribute a positive value towards a total possible score of 130. For body weight, white blood cell, and platelet decreases, recovery is considered. […] The total score is divided by 13 to put it on a scale from 0 to 10.

[3] = system: VM46 (resistant variant of human colon carcinoma HCT 116); assay: In vitro cytotoxicity, cell colony formation assay, VM46; type: cell-based
Method: as §1
Identical assessments were carried out using VM46 (resistant variant of human colon carcinoma HCT 116 obtained from Dr. Li-Xi, M.D, Ph.D., California Pacific Medical Center, CA).

Sprague-Dawley rats [4] = assay: In vivo toxicity assessment in rats, oral; design: species or system rat; conditions: for Rat tox score PO: summary score
Method: as §2, §3

[5] = system: HT29 (human colon carcinoma) xenograft; conditions: HT29, best score 10
Text: Score=10*(TWd1−TWdn)/TWd1, where
TWd1=tumor weight on day 1
(§4) TWDn=lowest tumor weight on day 10 or later
(§5) Thus the best score for complete regression would be 10.

[6] = system: human pancreatic tumor xenograft Panc-1; conditions: Panc-1, best score 10
Method: The tumor used for this study was maintained in athymic nude mice. A tumor fragment (1 mm^3) was implanted s.c. into the right flank of each test mouse. Tumors were monitored twice weekly and then daily as their volume approached 200-400 mm^3 with a mean of 250-300 mm^3. On Day 1 of the study, the animals were sorted into treatment groups with tumor sizes of 171.5-320.0 mm^3 and group mean tumor sizes of 212.6-216.0 mm^3. Tumor size, in mm^3, was calculated from the following formula:
[formula] where w=width and l=length in mm of the tumor. Tumor weight was estimated with the assumption that 1 mg is equivalent to 1 mm^3 of tumor volume. […] All treatments were administered orally, once on Day 1 (qd×1). […] In all groups, the dosing volume of 0.6 mL/20 g mouse was scaled to the body weight of each animal. Each animal was euthanized when its neoplasm reached the predetermined endpoint size (1200 mm^3). The time to endpoint (TTE) for each mouse was calculated by the following equation:
(§6) [formula] where TTE is expressed in days, endpoint volume is in mm^3, b is the intercept, and m is the slope of the line obtained by linear regression of a log-transformed tumor growth data set. The data set is comprised of the first observation that exceeded the study endpoint volume and the three consecutive observations that immediately preceded the attainment of the endpoint volume. […] Animals classified as TR (treatment-related) deaths or NTRM (non-treatment-related metastasis) deaths are assigned a TTE value equal to the day of death. Animals classified as NTR (non-treatment-related) deaths are excluded from TTE calculations. Treatment efficacy was determined from tumor growth delay (TGD), which is defined as the increase in the median TTE for a treatment group compared to the control group: TGD=T−C, expressed in days, or as a percentage of the median TTE of the control group:
[formula] where: • T=median TTE for a treatment group and • C=median TTE for control Group 1.
(§7) Treatment may cause partial regression (PR) or complete regression (CR) of the tumor in an animal. In a PR response, the tumor volume is 50% or less of its Day 1 volume for three consecutive measurements during the course of the study, and equal to or greater than 13.5 mm^3 for one or more of these three measurements. In a CR response, the tumor volume is less than 13.5 mm^3 for three consecutive measurements during the course of the study. An animal with a CR response at the termination of a study is additionally classified as a long-term tumor-free survivor (LTTFS).
With respect to toxicity, the animals were weighed daily on Days 1-5, then twice weekly until the completion of the study. The mice were examined frequently for overt signs of any adverse, drug-related side effects. Acceptable toxicity for the maximum tolerated dose (MTD) of a cancer drug in mice is defined by the NCl as a group mean body-weight (BW) loss of less than 20% during the test, and not more than one toxic death among ten treated animals. The log rank test was employed to analyze the significance of the difference between the TTE values of a drug-treated group and the vehicle-treated control group. The log rank test analyzes the data for all animals except the NTR deaths. The two-tailed statistical analyses were conducted at P=0.05. The group median tumor growth curves show the median tumor volume (MTV) as a function of time. When an animal exited the study due to tumor size or TR death, the final tumor volume recorded for the animal was included with the data used to calculate the median volume at subsequent time points.

[7] = system: HT29 (human colon carcinoma) xenograft; conditions: single dose IV
Text: Score=10*(TWd1−TWdn)/TWd1, where
TWd1=tumor weight on day 1
as §4, §5

[8] = system: human pancreatic tumor xenograft Panc-1; conditions: single dose IV
Text: as §6, §7
With respect to toxicity, the animals were weighed daily on Days 1-5, then twice weekly until the completion of the study. The mice were examined frequently for overt signs of any adverse, drug-related side effects. […] The log rank test was employed to analyze the significance of the difference between the TTE values of a drug-treated group and the vehicle-treated control group. The log rank test analyzes the data for all animals except the NTR deaths. The two-tailed statistical analyses were conducted at P=0.05. The group median tumor growth curves show the median tumor volume (MTV) as a function of time. When an animal exited the study due to tumor size or TR death, the final tumor volume recorded for the animal was included with the data used to calculate the median volume at subsequent time points. If more than one death occurred in a treatment group, the tumor growth curve for that group was truncated at the time of the second death.
Human Panc-1 pancreatic carcinomas were maintained in athymic nude mice. A tumor fragment (1 mm^3) was implanted s.c. into the right flank of each test mouse. Tumors were monitored twice weekly and then daily as their size approached 200-400 mm^3 with a mean of 250-300 mm^3. On Day 1 of the study, the animals were sorted into groups of six mice, with tumor sizes of 171.5-486.0 mm^3 and group mean tumor sizes of 269.7-275.0 mm^3. Mice were sorted into groups containing six mice each, and treated according to the protocol in Tables 2A and 2B. All treatments were administered intravenously. Control Group 1 mice received the ethanol 5% and Liposyn II 95% vehicle, once on Day 1 (qd×1). […] Dosing volumes were 0.5 ml/20 g body weight for qd×1 dosing regimens and 0.3 mL/20 g body weight for the qod×5 or q4d×4 dosing schedules. Dosing volumes were scaled to the body weight of each animal. The vehicle was given to Group 1 mice in a single dose on Day 1 (qd×1).

[9] = system: DLD-1 (resistant human colon carcinoma); assay: In vitro cytotoxicity, MTT assay, DLD-1; type: cell-based
[10] = Homo sapiens, HCT-116, 72 h drug incubation

| SMILES | IC50 ([1]; 72 h drug incubation) [nM] | Rat tox score IV (Sprague-Dawley rats [2]; scale 0 to 10) | IC50 ([3]; 72 h drug incubation) [nM] | Rat tox score PO (Sprague-Dawley rats [4]; scale 0 to 10) | other results |
| --- | --- | --- | --- | --- | --- |
| CC(=O)OC12COC1CC(O)C1(C)C(=O)C(OC(=O)C3CC3)C3=C(C)C(OC(=O)C(O)C(NC(=O)OC(C)(C)C)c4ccco4)CC(O)(C(OC(=O)c4ccccc4)C21)C3(C)C (stereo not drawn) [Compound 0843, reference compound] | 0.24 | 0 | 0.86 | 0 |  |
| CC(=O)OC12COC1CC(O)C1(C)C(=O)C(OC(=O)C3CC3)C3=C(C)C(OC(=O)C(O)C(NC(=O)OC(C)(C)C)c4cccs4)CC(O)(C(OC(=O)c4ccccc4)C21)C3(C)C (stereo not drawn) [Compound 0854, reference compound] | 0.05 | 1 | 0.09 | 0 |  |
| CC(=O)OC12COC1CC(O)C1(C)C(=O)C(OC(=O)C3CC3)C3=C(C)C(OC(=O)C(O)C(NC(=O)OC(C)(C)C)c4ccoc4)CC(O)(C(OC(=O)c4ccccc4)C21)C3(C)C (stereo not drawn) [Compound 2781, reference compound] | 0.18 | 1 | 1.91 | 0 |  |
| CC(=O)OC12COC1CC(O)C1(C)C(=O)C(OC(=O)C3CC3)C3=C(C)C(OC(=O)C(O)C(NC(=O)OC(C)(C)C)c4ccsc4)CC(O)(C(OC(=O)c4ccccc4)C21)C3(C)C (stereo not drawn) [Compound 2794] | 0.28 |  | 2.03 |  |  |
| CC(=O)OC12COC1CC(O)C1(C)C(=O)C(OC(=O)C3CC3)C3=C(C)C(OC(=O)C(O)C(NC(=O)OC(C)(C)C)c4ccccn4)CC(O)(C(OC(=O)c4ccccc4)C21)C3(C)C (stereo not drawn) [Compound 2802] | 0.3 |  | 3.32 |  |  |
| CC(=O)OC12COC1CC(O)C1(C)C(=O)C(OC(=O)C3CC3)C3=C(C)C(OC(=O)C(O)C(NC(=O)OC(C)(C)C)c4ccncc4)CC(O)(C(OC(=O)c4ccccc4)C21)C3(C)C (stereo not drawn) [Compound 2813] | 0.05 |  | 8.22 |  |  |
| CC(=O)OC12COC1CC(O)C1(C)C(=O)C(OC(=O)C3CC3)C3=C(C)C(OC(=O)C(O)C(NC(=O)OC(C)C)c4cccs4)CC(O)(C(OC(=O)c4ccccc4)C21)C3(C)C (stereo not drawn) [Compound 3071, reference compound] | 0.17 | 5 | 1.51 | 4 | Tox Score, Dose 3 mg (Sprague-Dawley rats [2]; dose 3 mg, scale 0 to 10): 7.7; Tox Score, Dose 9 mg (Sprague-Dawley rats [2]; dose 9 mg, scale 0 to 10): 6; Tox Score, Dose 12 mg (Sprague-Dawley rats [2]; dose 12 mg, scale 0 to 10): 3.2; Tox Score, Weighted Avg (Sprague-Dawley rats [2]; Wt Avg = (Σ(dose × grp score))/24): 4.8; Tox Score, Average (Sprague-Dawley rats [2]; average of 3 dose groups): 5.6; Tox Score, Dose 15 mg (Sprague-Dawley rats [4]; Oral, dose 15 mg, scale 0 to 10): 6.2; Tox Score, Dose 30 mg (Sprague-Dawley rats [4]; Oral, dose 30 mg, scale 0 to 10): 5.1; Tox Score, Dose 40 mg (Sprague-Dawley rats [4]; Oral, dose 40 mg, scale 0 to 10): 1.5; Tox Score, Average (Sprague-Dawley rats [4]; Oral, average of 3 dose groups): 4.3; Tox Score, Weighted Avg (Sprague-Dawley rats [4]; Oral, weighted by dose): 3.6; Efficacy Score = 10*(TWd1−TWdn)/TWd1 ([5]; single dose oral 60 mg/kg): 6.3; Efficacy Score = 10*(TWd1−TWdn)/TWd1 ([5]; single dose oral 120 mg/kg): 7.5; Efficacy Score = 10*(TWd1−TWdn)/TWd1 ([6]; single dose oral 60 mg/kg): 5.8; Efficacy Score = 10*(TWd1−TWdn)/TWd1 ([6]; single dose oral 120 mg/kg): 7.3 |
| CC(=O)OC12COC1CC(O)C1(C)C(=O)C(OC(=O)C3CC3)C3=C(C)C(OC(=O)C(O)C(NC(=O)OCC(C)C)c4ccco4)CC(O)(C(OC(=O)c4ccccc4)C21)C3(C)C (stereo not drawn) [Compound 3102, reference compound] | 0.33 | 6 | 1.49 | 6 | Efficacy Score = 10*(TWd1−TWdn)/TWd1 ([7]; Dose 60, best score 10): 1.3; Efficacy Score = 10*(TWd1−TWdn)/TWd1 ([7]; Dose 120, best score 10): 5.3; Efficacy Score = 10*(TWd1−TWdn)/TWd1 ([8]; Dose 60, best score 10): 2.6; Efficacy Score = 10*(TWd1−TWdn)/TWd1 ([8]; Dose 120, best score 10): 5.3 |
| CC(=O)OC12COC1CC(O)C1(C)C(=O)C(OC(=O)C3CC3)C3=C(C)C(OC(=O)C(O)C(NC(=O)OCC(C)C)c4cccs4)CC(O)(C(OC(=O)c4ccccc4)C21)C3(C)C (stereo not drawn) [Compound 3129] | 1.53 |  | 2.88 |  |  |
| CCCC(=O)NC(c1cccs1)C(O)C(=O)OC1CC2(O)C(OC(=O)c3ccccc3)C3C4(OC(C)=O)COC4CC(O)C3(C)C(=O)C(OC(=O)C3CC3)C(=C1C)C2(C)C (stereo not drawn) [Compound 3132] | 0.37 |  | 5.33 |  |  |
| CCOC(=O)NC(c1ccco1)C(O)C(=O)OC1CC2(O)C(OC(=O)c3ccccc3)C3C4(OC(C)=O)COC4CC(O)C3(C)C(=O)C(OC(=O)C3CC3)C(=C1C)C2(C)C (stereo not drawn) [Compound 3677] | 0.3 |  | 18.6 |  |  |
| CC(=O)OC12COC1CC(O)C1(C)C(=O)C(OC(=O)C3CC3)C3=C(C)C(OC(=O)C(O)C(NC(=O)OC(C)C)c4ccco4)CC(O)(C(OC(=O)c4ccccc4)C21)C3(C)C (stereo not drawn) [Compound 3853, reference compound] | 0.08 | 1 | 0.99 | 1 |  |
| CCOC(=O)NC(c1cccs1)C(O)C(=O)OC1CC2(O)C(OC(=O)c3ccccc3)C3C4(OC(C)=O)COC4CC(O)C3(C)C(=O)C(OC(=O)C3CC3)C(=C1C)C2(C)C (stereo not drawn) [Compound 4051] | 0.3 |  | 1.62 | 5 |  |
| CCCC(=O)NC(c1ccco1)C(O)C(=O)OC1CC2(O)C(OC(=O)c3ccccc3)C3C4(OC(C)=O)COC4CC(O)C3(C)C(=O)C(OC(=O)C3CC3)C(=C1C)C2(C)C (stereo not drawn) [Compound 4062] | 0.59 |  | 7.64 |  |  |
| CC(=O)OC12COC1CC(O)C1(C)C(=O)C(OC(=O)C3CC3)C3=C(C)C(OC(=O)C(O)C(NC(=O)OCC(C)C)c4ccoc4)CC(O)(C(OC(=O)c4ccccc4)C21)C3(C)C (stereo not drawn) [Compound 4665] | 2.13 |  | 28.4 |  |  |
| CC(=O)OC12COC1CC(O)C1(C)C(=O)C(OC(=O)C3CC3)C3=C(C)C(OC(=O)C(O)C(NC(=O)OCC(C)C)c4ccsc4)CC(O)(C(OC(=O)c4ccccc4)C21)C3(C)C (stereo not drawn) [Compound 5011] | 2.99 |  | 8.47 |  |  |
| CC(=O)O[C@@]12CO[C@@H]1C[C@H](O)[C@@]1(C)C(=O)[C@H](O)C3=C(C)[C@@H](OC(=O)[C@H](O)[C@@H](NC(=O)OC(C)(C)C)c4ccccc4)C[C@@](O)([C@@H](OC(=O)c4ccccc4)[C@H]21)C3(C)C [docetaxel] | 0.6 |  | 6.7 |  | IC50 [9]: 9.1 nM |
| CC(=O)O[C@H]1C(=O)[C@@]2(C)[C@H]([C@H](OC(=O)c3ccccc3)[C@]3(O)C[C@H](OC(=O)[C@H](O)[C@@H](NC(=O)c4ccccc4)c4ccccc4)C(C)=C1C3(C)C)[C@]1(OC(C)=O)CO[C@@H]1C[C@@H]2O [paclitaxel] |  |  |  |  | IC50 [1, 10]: 2.1 nM; IC50 [3, 10]: 20 nM; IC50 ([9]; Homo sapiens, DLD-1): 10.1 nM |
